The record followed here is patent US4321381A, “Ergot derivatives” (Farmitalia Carlo Erba S.p.A., priority 1978, dated 1982).

For one data set, the system named is normotensive rats. Description: Blood pressure and heart rate in the conscious normotensive rat (NR). Format: in vivo. To be noted: 5 mg/kg os. As for the experimental part:
Blood pressure recordings have been made in conscious normotensive unrestrained rats weighing approximately 300 g, via a catheter chronically inserted into the left common carotid artery. Implantation of arterial cannula was made under sodium pentobarbital anesthesia (50 mg/kp i.p.) A 1 cm long incision was made through the previously shaved ventral surface of the neck and the tissues overlying the trachea parted by blunt dissection to reveal the carotid artery. The polyethylene catheter used was made with PE 50 tubing, previously filled with saline containing 250 I.U./ml heparin. The tip of the cannula was pushed at least 2 cm inside the vessel toward the heart. The cannula was then firmly tied and passed beneath the skin to emerge from a small incision in the back of the neck. During the post-operative period and before the start of each recording session, the cannula was flushed through daily with saline containing heparin (250 I.U./ml). The experiments were performed two days after surgery. Drugs were administered by gastric gavage.

In data set [1] the test system is spontaneously hypertensive male rats, strain MHS. Description: Anti-hypertensive activity in the spontaneously hypertensive rat (MHS): blood pressure and heart rate at the tail. The class given is in vivo. How it is done: 1. Spontaneously Hypertensive Rat (MHS)
Four spontaneously hypertensive male rats, strain MHS, weight 250 to 300 g for each group were used. The animals were treated for four consecutive days. The drugs were administered by gastric gavage while suspended in 5% arabic gum (0.2 ml/100 g body weight), and blood pressure (BP) and heart rate (HR) were measured at the tail by BP Recorder W+W. Blood pressure and heart rate were measured on the first and fourth day of treatment 1 hour before and 1 and 5 hours after drug administration.

A short description of data set [2]: Acute toxicity (LD50) in mice. Format: in vivo, mouse. The note with it: mouse, in vivo; male mice; oral; observed for seven days. The source says:
Evaluation of the Toxicity (LD50)
Ten male mice for each group were orally treated with drugs at different dose levels for the determination of lethal dose 50 (LD50).

As to `CN1C[C@H](CC(C#N)C(=O)N2CCCC2)C[C@@H]2c3cccc4[nH]cc(c34)C[C@H]21` (stereo partly drawn) [Example 1133, 2-Cyano-3-(6'-methylergoline-8'β)-N-propionyl-pyrrolidine], in the data set on normotensive rats, the “Change in Blood Pressure after Treatment, 30'” value is on record as -15 mm Hg; the “Change in heart rate after treatment, 30'” value is -25 b/min; the “Change in Blood Pressure after Treatment, 60'” value is -20 mm Hg; the “Change in heart rate after treatment, 60'” value is listed as -45 b/min. In the data set on normotensive rats, the “Change in Blood Pressure after Treatment, 120'” value is given as -15 mm Hg; the “Change in heart rate after treatment, 120'” value was -40 b/min; the “Change in Blood Pressure after Treatment, 180'” value is -10 mm Hg; the “Change in heart rate after treatment, 180'” value is on record as -40 b/min. In the data set on normotensive rats, the “Change in Blood Pressure after Treatment, 240'” value is -9 mm Hg; the “Change in heart rate after treatment, 240'” value was -10 b/min; the “Change in Blood Pressure after Treatment, 360'” value stood at 0 mm Hg; the “Change in heart rate after treatment, 360'” value is recorded as -5 b/min. Further, in the data set with normotensive rats, the “Change in Blood Pressure after Treatment, 24h” value is “+5 mm Hg” and the “Change in heart rate after treatment, 24h” value was found to be 0 b/min. Besides, in data set [1] (2 mg/kg os), the “Change in BP, 1 hr after dose, first day” value is -20 mm Hg; the “Change in HR, 1 hr after dose, first day” value is given as -33 b/min; the “Change in HR, 5 hr after dose, first day” value was -28 b/min; the “Change in BP, 5 hrs after dose, first day” value is given as -11 mm Hg. Moreover, in data set [1] (2 mg/kg os), the “Change in BP, 1 hr after dose, fourth day” value was -21 mm Hg; the “Change in HR, 1 hr after dose, fourth day” value is on record as -20 b/min; the “Change in HR, 5 hr after dose, fourth day” value is listed as -3 b/min; the “Change in BP, 5 hrs after dose, fourth day” value is -10 mm Hg. For the same molecule, in data set [1] (5 mg/kg os), the “Change in BP, 1 hr after dose, first day” value is recorded as -24 mm Hg; the “Change in HR, 1 hr after dose, first day” value is reported as 0 b/min; the “Change in HR, 5 hr after dose, first day” value is “+13 b/min”; the “Change in BP, 5 hrs after dose, first day” value was -9 mm Hg. In addition, in data set [1] (5 mg/kg os), the “Change in BP, 1 hr after dose, fourth day” value is on record as -42 mm Hg; the “Change in HR, 1 hr after dose, fourth day” value is -13 b/min; the “Change in HR, 5 hr after dose, fourth day” value was -8 b/min; the “Change in BP, 5 hrs after dose, fourth day” value is given as -25 mm Hg. For the same molecule, the LD50 (in general, the dose at which mortality reaches 50%) at 168 h in data set [2] amounted to 500 mg/kg.
Regarding `CN1C[C@H](CC(C#N)C(N)=O)C[C@@H]2c3cccc4[nH]cc(c34)C[C@H]21` (stereo partly drawn) [355/1057, 2-Cyano-3-(6'-methylergoline-8'β)-propionamide], in the data set on normotensive rats, the “Change in Blood Pressure after Treatment, 30'” value is given as -23 mm Hg; the “Change in heart rate after treatment, 30'” value is given as -25 b/min; the “Change in Blood Pressure after Treatment, 60'” value was -23 mm Hg; the “Change in heart rate after treatment, 60'” value was -40 b/min. Moreover, in the data set on normotensive rats, the “Change in Blood Pressure after Treatment, 120'” value was -22 mm Hg; the “Change in heart rate after treatment, 120'” value was -42 b/min; the “Change in Blood Pressure after Treatment, 180'” value is listed as -21.7 mm Hg; the “Change in heart rate after treatment, 180'” value is reported as -22 b/min. Also, in the data set with normotensive rats, the “Change in Blood Pressure after Treatment, 240'” value is on record as -23 mm Hg; the “Change in heart rate after treatment, 240'” value is listed as “+10 b/min”; the “Change in Blood Pressure after Treatment, 360'” value is -20 mm Hg; the “Change in heart rate after treatment, 360'” value is listed as “+3 b/min”. In addition, in the data set with normotensive rats, the “Change in Blood Pressure after Treatment, 24h” value is recorded as -12 mm Hg and the “Change in heart rate after treatment, 24h” value was “+6 b/min”. Also, in data set [1] (2 mg/kg os), the “Change in BP, 1 hr after dose, first day” value was -25 mm Hg; the “Change in HR, 1 hr after dose, first day” value came to 0 b/min; the “Change in HR, 5 hr after dose, first day” value is -8 b/min; the “Change in BP, 5 hrs after dose, first day” value was determined as 0 mm Hg. Moreover, in data set [1] (2 mg/kg os), the “Change in BP, 1 hr after dose, fourth day” value is -26 mm Hg; the “Change in HR, 1 hr after dose, fourth day” value is -2 b/min; the “Change in HR, 5 hr after dose, fourth day” value is -5 b/min; the “Change in BP, 5 hrs after dose, fourth day” value is on record as -31 mm Hg. Moreover, in data set [1] (5 mg/kg os), the “Change in BP, 1 hr after dose, first day” value is reported as -51 mm Hg; the “Change in HR, 1 hr after dose, first day” value is on record as “+5 b/min”; the “Change in HR, 5 hr after dose, first day” value is “+35 b/min”; the “Change in BP, 5 hrs after dose, first day” value is recorded as -41 mm Hg. In data set [1] (5 mg/kg os), the “Change in BP, 1 hr after dose, fourth day” value is reported as -45 mm Hg; the “Change in HR, 1 hr after dose, fourth day” value was “+25 b/min”; the “Change in HR, 5 hr after dose, fourth day” value is reported as “+20 b/min”; the “Change in BP, 5 hrs after dose, fourth day” value is listed as -31 mm Hg. Moreover, in data set [2], the 50% lethal dose (LD50) at 168 h is over 1000 mg/kg.
Turning to `CCCN1C[C@H](CC(C#N)C(=O)NCC)C[C@@H]2c3cccc4[nH]cc(c34)C[C@H]21` (stereo partly drawn) [355/1281, 2-Cyano-3-(6'-n-propylergoline-8'β)-N-ethyl-propionamide], in data set [1] (5 mg/kg os), the “Change in BP, 1 hr after dose, first day” value is -25 mm Hg; the “Change in BP, 5 hrs after dose, first day” value was -15 mm Hg; the “Change in BP, 1 hr after dose, fourth day” value is -30 mm Hg; the “Change in BP, 5 hrs after dose, fourth day” value is reported as -35 mm Hg.
In the same order, the values of `C=CCN1C[C@H](CC(C#N)C(=O)NCC)C[C@@H]2c3cccc4[nH]cc(c34)C[C@H]21` (stereo partly drawn) [355/1320, 2-Cyano-3-(6'-allylergoline-8'β)-N-ethylpropionamide] are -30 mm Hg, -20 mm Hg, -20 mm Hg and -15 mm Hg.
Turning to `CC(C)N1C[C@H](CC(C#N)C(N)=O)C[C@@H]2c3cccc4[nH]cc(c34)C[C@H]21` (stereo partly drawn) [Example 37, 2-Cyano-3-(6'-isopropylergoline-8'β)-propionamide], in data set [1] (5 mg/kg os), the “Change in BP, 1 hr after dose, first day” value was -30 mm Hg; the “Change in BP, 5 hrs after dose, first day” value was -25 mm Hg; the “Change in BP, 1 hr after dose, fourth day” value was -45 mm Hg; the “Change in BP, 5 hrs after dose, fourth day” value is reported as -35 mm Hg.
The matching figures for `N#CC(CC1CC2c3cccc4[nH]cc(c34)CC2N(CC2CC2)C1)C(N)=O` (stereo not drawn) [355/1323, 2-Cyano-3-(6'-methylcyclopropylergoline-8'β)-propionamide]: -15 mm Hg, -20 mm Hg, -20 mm Hg and -30 mm Hg.
For `C=CCN1C[C@H](CC(C#N)C(N)=O)C[C@@H]2c3cccc4[nH]cc(c34)C[C@H]21` (stereo partly drawn) [355/1266, 2-Cyano-3-(6'-allylergoline-8'β)-propionamide], in data set [1] (2 mg/kg os), the “Change in BP, 1 hr after dose, first day” value is reported as -14 mm Hg; the “Change in BP, 5 hrs after dose, first day” value is recorded as -15 mm Hg; the “Change in BP, 1 hr after dose, fourth day” value is recorded as -25 mm Hg; the “Change in BP, 5 hrs after dose, fourth day” value is on record as -45 mm Hg. Besides, in data set [1] (5 mg/kg os), the “Change in BP, 1 hr after dose, first day” value is -14 mm Hg; the “Change in BP, 5 hrs after dose, first day” value is listed as -10 mm Hg; the “Change in BP, 1 hr after dose, fourth day” value is -35 mm Hg; the “Change in BP, 5 hrs after dose, fourth day” value is given as -60 mm Hg.
Consider `CCNC(=O)C(C#N)C[C@@H]1C[C@@H]2c3cccc4[nH]cc(c34)C[C@H]2N(C(C)C)C1` (stereo partly drawn) [Example 38, 2-Cyano-3-(6'-isopropylergoline-8'β)-N-ethyl propionamide], for which, in data set [1] (5 mg/kg os), the “Change in BP, 1 hr after dose, first day” value is recorded as -20 mm Hg; the “Change in BP, 5 hrs after dose, first day” value is listed as -10 mm Hg; the “Change in BP, 1 hr after dose, fourth day” value was -32 mm Hg; the “Change in BP, 5 hrs after dose, fourth day” value is given as -28 mm Hg.
`CCCN1C[C@H](CC(C#N)C(N)=O)C[C@@H]2c3cccc4[nH]cc(c34)C[C@H]21` (stereo partly drawn) [355/1282, 2-Cyano-3-(6'n-propylergoline-8'β)-propionamide]: in data set [1] (2 mg/kg os), the “Change in BP, 1 hr after dose, first day” value is recorded as -20 mm Hg; the “Change in BP, 5 hrs after dose, first day” value is -10 mm Hg; the “Change in BP, 1 hr after dose, fourth day” value was -15 mm Hg; the “Change in BP, 5 hrs after dose, fourth day” value was -25 mm Hg. Further, in data set [1] (5 mg/kg os), the “Change in BP, 1 hr after dose, first day” value is -40 mm Hg; the “Change in BP, 5 hrs after dose, first day” value was -45 mm Hg; the “Change in BP, 1 hr after dose, fourth day” value is on record as -25 mm Hg; the “Change in BP, 5 hrs after dose, fourth day” value is reported as -30 mm Hg.
With `CCNC(=O)C(C#N)CC1CC2c3cccc4[nH]cc(c34)CC2N(CC2CC2)C1` (stereo not drawn) [355/1324, 2-Cyano-3-(6'-methylcyclopropylergoline-8β)-N-ethylpropionamide], in data set [1] (5 mg/kg os), the “Change in BP, 1 hr after dose, first day” value is -20 mm Hg; the “Change in BP, 5 hrs after dose, first day” value is reported as -40 mm Hg; the “Change in BP, 1 hr after dose, fourth day” value is reported as -40 mm Hg; the “Change in BP, 5 hrs after dose, fourth day” value is reported as -35 mm Hg.
